This note sets out measurements from US7211587B2, “Quinoline derivatives and quinazoline derivatives having azolyl group” (Kirin Beer Kabushiki Kaisha, priority 2001, dated 2007).

The pIC50 is −log10 of the IC50, conventionally taken in molar units.

pIC50: −log10 of the molar value. Structures can show the parent of a compound that is named as a salt. Where only a bound is given, the exact number is not on record here.

Assay [1] deals with Human pulmonary carcinoma cells (LC-6). The assay can be described thus: Antitumor activity against human pulmonary carcinoma cells (LC-6) using nude rats. The class given is in vivo. The conditions noted are these: LC-6 in nude rats. How it is done:
(§1) Human pulmonary carcinoma cells (LC-6) (obtained from Central Laboratories for Experimental Animals) were transplanted into nude rats. When the tumor volume became about 700 mm^3, the rats were grouped so that each group consisted of four rats and the average tumor volume was even among the groups. A test compound was orally administered at doses of 0.2, 0.5, 1.0, and 5.0 mg/kg to the test groups every day once a day for 14 days, while only a vehicle was administered to a control group in the manner as in the test groups. The tumor growth inhibition rate (TGIR) was calculated as follows: The tumor growth inhibition rate (TGIR)=(1−TX/CX)×100 wherein CX represents the volume of tumor at day X for the control group when the tumor volume at the first day of the administration was presumed to be 1; and TX represents the tumor volume for test compound administration groups.

Assay [2] shares this test system. The assay is described as follows: Antitumor activity against human pulmonary carcinoma cells (LC-6) transplanted into nude mice. The class given is in vivo. The settings on record: Mus musculus, 216 h; LC-6 in nude mice, oral 20 mg/kg once a day for 9 days; read-out: TGIR (tumor growth inhibition rate). The protocol:
as §1, with “mice.” for “rats.”, “100” for “700”, “mice” for “rats”, “a dose” for “doses”, “20” for “0.2, 0.5, 1.0, and 5.0”, “9” for “14”

A further assay deals with T1, human KDR (Homo sapiens, UniProt P35968).
T1 construct: expressed in transfected cells; host or cells: NIH 3T3 cells (mouse fibroblasts) stably expressing human KDR
The assay is described as follows: Inhibitory activity against KDR phosphorylation by ELISA (VEGF-stimulated NIH 3T3 cells expressing human KDR). The conditions noted are these: VEGF 100 ng/ml, compound 1 hr, read-out: IC50 (inhibition of KDR phosphorylation). The class given is cell-based. How it is done: The harvested cells were inoculated into wells of a collagen-type one-coat 96-well flat-bottom plate, each containing the same medium, in an amount of 1.5×10^4 per well, followed by cultivation at 37° C. overnight. The medium was then replaced by a DMEM medium containing 0.1% fetal calf serum. A solution of a test compound in dimethyl sulfoxide was added to each well, and the cultivation was continued at 37° C. for additional one hr. A human recombinant vascular endothelial growth factor (hereinafter abbreviated to “VEGF”) was added to a final concentration of 100 ng/ml, and the stimulation of cells was carried out at 37° C. for 2 min. The medium was removed, the cells were washed with phosphate buffered saline (pH 7.4), and 50 μl of a solubilization buffer (20 mM HEPES (pH 7.4), 150 mM NaCl, 0.2% Triton X-100, 10% glycerol, 5 mM sodium orthovanadylate, 5 mM disodium ethylenediaminetetraacetate, and 2 mM Na4P2O7) was then added thereto. The mixture was shaken at 4° C. for 2 hr to prepare a cell extract.
Separately, phosphate buffered saline (50 μl, pH 7.4) containing 5 μg/ml of an anti-phospho-tyrosine antibody (PY20; purchased from Transduction Laboratories) was added to a microplate for ELISA (Maxisorp; purchased from NUNC), followed by standing at 4° C. overnight to form a solid phase on the wells. After washing of the plate, 300 μl of a blocking solution was added, followed by standing at room temperature for 2 hr to perform blocking. After washing, the whole quantity of the cell extract was transferred to the wells, and the plate was then allowed to stand at 4° C. overnight. After washing, an anti-KDR antibody (purchased from Santa Cruz) was allowed to react at room temperature for one hr, and, after washing, a peroxidase-labeled anti-rabbit Ig antibody (purchased from Amersham) was allowed to react at room temperature for one hr. After washing, a chromophoric substrate for peroxidase (purchased from Sumitomo Bakelite Co., Ltd.) was added thereto to initiate a reaction. After a suitable level of color development, a reaction termination solution was added to stop the reaction, and the absorbance at 450 nm was measured with a microplate reader. The KDR phosphorylation activity for each well was determined by presuming the absorbance with the addition of VEGF and without the addition of the medicament to be 100% KDR phosphorylation activity and the absorbance without the addition of the medicament and VEGF to be 0% KDR phosphorylation activity.
Background: ELISA stands for enzyme-linked immunosorbent assay.

In assay [3] the test system is human pulmonary carcinoma cells (A549). The assay can be described thus: Antitumor activity against human pulmonary carcinoma cells (A549) using nude mice. The assay is classed as in vivo. The settings on record: A549 in nude mice, oral 20 mg/kg once a day for 9 days. How it is done: (§2) Human colon carcinoma cells (LS174T) (obtained from American Type Culture Collection) or human pulmonary carcinoma cells (A549) (obtained from RIKEN Cell Bank) were transplanted into nude mice. When the tumor volume became about 150 mm^3, the mice were grouped so that each group consisted of four mice and the average tumor volume was even among the groups. A test compound was orally administered at doses of 5 and 20 mg/kg to the test groups every day once a day for 9 days, while only a vehicle was administered to a control group in the manner as in the test groups. The tumor growth inhibition rate (TGIR) was calculated as follows: The tumor growth inhibition rate (TGIR)=(1−TX/CX)×100 wherein CX represents the volume of tumor at day X for the control group when the tumor volume at the first day of the administration was presumed to be 1; and TX represents the tumor volume for test compound administration groups.

Assay [4] has as its system Human colon carcinoma cells (LS174T). The assay can be described thus: Antitumor activity against human colon carcinoma cells (LS174T) using nude mice. The class given is in vivo. The settings on record: LS174T (printed LS17) in nude mice, oral 5 mg/kg once a day for 9 days. How it is done: as §2
Where [5] appears, read: oral 5 mg/kg once a day for 14 days.

T1 sequence (P35968 20-1356): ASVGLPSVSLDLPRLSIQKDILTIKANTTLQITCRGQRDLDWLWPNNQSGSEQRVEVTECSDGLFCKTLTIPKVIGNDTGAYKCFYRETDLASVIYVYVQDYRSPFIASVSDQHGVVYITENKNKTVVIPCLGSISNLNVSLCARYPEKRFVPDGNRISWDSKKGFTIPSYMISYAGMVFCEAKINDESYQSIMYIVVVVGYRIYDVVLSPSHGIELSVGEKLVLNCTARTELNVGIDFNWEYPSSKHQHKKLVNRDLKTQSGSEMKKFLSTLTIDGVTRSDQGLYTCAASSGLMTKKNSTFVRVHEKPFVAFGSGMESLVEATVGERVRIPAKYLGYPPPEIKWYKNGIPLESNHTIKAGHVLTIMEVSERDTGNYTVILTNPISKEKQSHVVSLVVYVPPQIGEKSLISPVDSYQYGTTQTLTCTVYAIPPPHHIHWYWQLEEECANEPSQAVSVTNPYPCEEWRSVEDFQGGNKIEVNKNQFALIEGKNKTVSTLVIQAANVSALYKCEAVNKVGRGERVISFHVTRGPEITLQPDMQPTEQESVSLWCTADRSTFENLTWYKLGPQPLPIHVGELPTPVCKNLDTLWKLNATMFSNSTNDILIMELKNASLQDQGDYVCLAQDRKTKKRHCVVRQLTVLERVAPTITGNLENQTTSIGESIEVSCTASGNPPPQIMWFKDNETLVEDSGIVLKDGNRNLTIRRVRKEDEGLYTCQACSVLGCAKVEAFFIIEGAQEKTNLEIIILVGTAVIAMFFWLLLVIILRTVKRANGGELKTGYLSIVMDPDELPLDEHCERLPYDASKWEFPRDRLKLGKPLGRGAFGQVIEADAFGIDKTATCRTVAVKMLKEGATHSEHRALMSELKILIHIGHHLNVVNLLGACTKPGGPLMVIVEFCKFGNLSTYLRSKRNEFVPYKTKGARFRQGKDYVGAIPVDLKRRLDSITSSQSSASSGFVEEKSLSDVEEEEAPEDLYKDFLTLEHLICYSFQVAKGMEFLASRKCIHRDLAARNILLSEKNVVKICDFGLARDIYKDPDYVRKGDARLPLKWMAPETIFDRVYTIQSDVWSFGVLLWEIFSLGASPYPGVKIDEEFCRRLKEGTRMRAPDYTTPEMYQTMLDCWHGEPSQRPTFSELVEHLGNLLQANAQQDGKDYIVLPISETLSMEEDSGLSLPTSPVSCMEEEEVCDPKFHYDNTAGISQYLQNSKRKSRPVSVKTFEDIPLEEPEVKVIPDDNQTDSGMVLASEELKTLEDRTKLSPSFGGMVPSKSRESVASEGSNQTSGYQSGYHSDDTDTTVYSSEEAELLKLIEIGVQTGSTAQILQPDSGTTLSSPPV

For `COc1cc2ncnc(Oc3ccc(NC(=O)Nc4nccs4)c(Cl)c3)c2cc1OC` [Ex. 38, N-{2-Chloro-4-[(6,7-dimethoxy-4-quinazolinyl)oxy]phenyl}-N′-(1,3-thiazol-2-yl)urea], the “TGIR (tumor growth inhibition rate)” value in assay [1] (setting [5]) amounted to 78%. The inhibition in vivo at 20 mg/kg in assay [2] was determined as 92%. In addition, on human KDR, the negative logarithm of the IC50 (pIC50) is over 9.00.

For the compound `COc1cc2nccc(Oc3ccc(NC(=O)Nc4cc(C)on4)c(Cl)c3)c2cc1OC` [Ex. 4, N-{2-Chloro-4-[(6,7-dimethoxy-4-quinolyl)oxy]phenyl}-N′-(5-methyl-3-isoxazolyl)urea], the “TGIR (tumor growth inhibition rate)” value in assay [1] (oral 0.2 mg/kg once a day for 14 days) turned out to be 62%; in assay [1] (oral 0.5 mg/kg once a day for 14 days), 80%; in assay [1] (oral 1 mg/kg once a day for 14 days) it was 88%; in assay [3] it was 65%; in assay [4] it was 65%. For the same compound, the inhibition in vivo at 20 mg/kg in assay [2] came out at 55.4%.

Turning to `COc1cc2nccc(Oc3ccc(NC(=O)Nc4nc(C)cs4)c(F)c3)c2cc1OC.Cl` [Ex. 28, N-{4-[(6,7-Dimethoxy-4-quinolyl)oxy]-2-fluorophenyl}-N′-(4-methyl-1,3-thiazol-2-yl)urea hydrochloride], the “TGIR (tumor growth inhibition rate)” value in assay [1] (setting [5]) is 59%. In addition, the inhibition in vivo at 20 mg/kg in assay [2] amounted to 66.3%. At human KDR, the negative-log IC50 (pIC50) was 9.52.

For `COc1cc2nccc(Oc3ccc(NC(=O)Nc4nccs4)c(F)c3)c2cc1OC.Cl` [Ex. 27, N-{4-[(6,7-Dimethoxy-4-quinolyl)oxy]-2-fluorophenyl}-N′-(1,3-thiazol-2-yl)urea hydrochloride], the “TGIR (tumor growth inhibition rate)” value in assay [1] (setting [5]) is 82%. Also, the negative logarithm of the IC50 (pIC50) on human KDR is 9.52.

On to `COc1cc2nccc(Oc3ccc(NC(=O)Nc4nnc(C(F)(F)F)s4)cc3)c2cc1OC` [Ex. 50, N-{4-[(6,7-Dimethoxy-4-quinolyl)oxy]phenyl}-N′-[5-(trifluoromethyl)-1,3,4-thiadiazol-2-yl]urea], for which the inhibition in vivo at 20 mg/kg in assay [2] turned out to be 11.9%. Further, the negative-log IC50 (pIC50) at human KDR is 8.20.

As for `COc1cc2nccc(Oc3ccc(NC(=O)Nc4nnc(C)s4)c(F)c3)c2cc1OC` [Ex. 58, N-{4-[(6,7-Dimethoxy-4-quinolyl)oxy]-2-fluorophenyl}-N′-(5-methyl-1,3,4-thiadiazol-2-yl)urea], the inhibition in vivo at 20 mg/kg in assay [2] came out at 13.4%. Further, the pIC50 on human KDR is 7.44.

Turning to `COc1cc2nccc(Oc3ccc(NC(=O)Nc4nc(C)c(C)s4)c(Cl)c3)c2cc1OC` [Ex. 24, N-{2-Chloro-4-[(6,7-dimethoxy-4-quinolyl)oxy]phenyl}-N′-(4,5-dimethyl-1,3-thiazol-2-yl)urea], the inhibition in vivo at 20 mg/kg in assay [2] turned out to be 39.8%. For the same compound, the pIC50 at human KDR is 9.00.

Turning to `COc1cc2nccc(Oc3ccc(NC(=O)Nc4nnc(C(F)(F)F)s4)c(F)c3)c2cc1OC` [Ex. 51, N-{4-[(6,7-Dimethoxy-4-quinolyl)oxy]-2-fluorophenyl}-N′-[5-(trifluoromethyl)-1,3,4-thiadiazol-2-yl]urea], the inhibition in vivo at 20 mg/kg in assay [2] is 45.6%. Moreover, the negative logarithm of the IC50 (pIC50) on human KDR was 8.43.

Turning to `COc1cc2nccc(Oc3ccc(NC(=O)Nc4ncc(C)s4)c(F)c3)c2cc1OC` [Ex. 21, N-{4-[(6,7-Dimethoxy-4-quinolyl)oxy]-2-fluorophenyl}-N′-(5-methyl-1.3-thiazol-2-yl)urea hydrochloride], the inhibition in vivo at 20 mg/kg in assay [2] was 66.6%. Also, the pIC50 at human KDR was 9.40.
